Experiments:
[1] = Inhibition of His-tagged human RBP4- biotin immobilized TTR (unknown origin) protein-protein interaction in presence of retinol by ELISA
[2] = Inhibition of His-tagged mouse RBP4- biotin immobilized TTR (unknown origin) protein-protein interaction in presence of retinol by ELISA
[3] = Reduction in blood RBP4 level in C57BL/6J mouse assessed as RBP4 leve in blood at 0.3 mg/kg, po after 4 hrs by ELISA (reference value: 100 +/- 3.9%); type: functional; set-up: scale not given: the % may be the effect or the level left
[4] = Reduction in blood RBP4 level in C57BL/6J mouse assessed as RBP4 leve in blood at 0.3 mg/kg, po after 7 hrs by ELISA (reference value: 100 +/- 3.9%); type: functional; set-up: scale not given: the % may be the effect or the level left
[5] = Reduction in blood RBP4 level in C57BL/6J mouse assessed as RBP4 leve in blood at 0.3 mg/kg, po after 24 hrs by ELISA (reference value: 100 +/- 3.9%); type: functional; set-up: scale not given: the % may be the effect or the level left
[6] = Reduction in blood RBP4 level in C57BL/6J mouse assessed as RBP4 leve in blood at 1 mg/kg, po after 4 hrs by ELISA (reference value: 100 +/- 9.8%); type: functional; set-up: scale not given: the % may be the effect or the level left
[7] = Reduction in blood RBP4 level in C57BL/6J mouse assessed as RBP4 leve in blood at 1 mg/kg, po after 7 hrs by ELISA (reference value: 100 +/- 9.8%); type: functional; set-up: scale not given: the % may be the effect or the level left
[8] = Reduction in blood RBP4 level in C57BL/6J mouse assessed as RBP4 leve in blood at 1 mg/kg, po after 24 hrs by ELISA (reference value: 100 +/- 9.8%); type: functional; set-up: scale not given: the % may be the effect or the level left
[9] = Reduction in blood RBP4 level in C57BL/6J mouse assessed as RBP4 leve in blood at 3 mg/kg, po after 4 hrs by ELISA (reference value: 100 +/- 12%); type: functional; set-up: scale not given: the % may be the effect or the level left
[10] = Reduction in blood RBP4 level in C57BL/6J mouse assessed as RBP4 leve in blood at 3 mg/kg, po after 7 hrs by ELISA (reference value: 100 +/- 12%); type: functional; set-up: scale not given: the % may be the effect or the level left
[11] = Reduction in blood RBP4 level in C57BL/6J mouse assessed as RBP4 leve in blood at 3 mg/kg, po after 24 hrs by ELISA (reference value: 100 +/- 12%); type: functional; set-up: scale not given: the % may be the effect or the level left
[12] = Reduction in blood RBP4 level in C57BL/6J mouse assessed as RBP4 leve in blood at 10 mg/kg, po after 4 hrs by ELISA (reference value: 100%); type: functional; set-up: scale not given: the % may be the effect or the level left
[13] = Reduction in blood RBP4 level in C57BL/6J mouse assessed as RBP4 leve in blood at 10 mg/kg, po after 7 hrs by ELISA (reference value: 100%); type: functional; set-up: scale not given: the % may be the effect or the level left
[14] = Reduction in blood RBP4 level in C57BL/6J mouse assessed as RBP4 leve in blood at 10 mg/kg, po after 24 hrs by ELISA (reference value: 100%); type: functional; set-up: scale not given: the % may be the effect or the level left
[15] = test system: Mus musculus; assay: Reduction in blood RBP4 level in C57BL/6J mouse assessed as RBP4 leve in blood at 0.3 to 10 mg/kg, po after 4 to 24 hrs hrs by ELISA (reference value: 100%); type: functional, organism-based; details: dose 0.3-10 mg/kg, time 4-24 hrs, DDE = dose-dependent effect
[16] = Cmax in ICR mouse at 1 mg/kg, po; type: ADME, organism-based; set-up: dose 1 mg/kg, route po; details: in vivo
[17] = AUC in ICR mouse at 1 mg/kg, po; type: ADME, organism-based; set-up: dose 1 mg/kg, route po; details: in vivo
[18] = Oral bioavilability in ICR mouse at 1 mg/kg; type: ADME, organism-based; details: in vivo

IC50 [1] [nM]	IC50 [2] [nM]	SMILES	further results
270	3800	O=C(O)CCC1CCN(c2cc(C(F)(F)F)cc(C(F)(F)F)c2)CC1	
6000	> 30000	O=C(O)CCc1cnc(-c2cc(C(F)(F)F)cc(C(F)(F)F)c2)o1	
1000	5900	O=C(O)C1CCN(c2cc(C(F)(F)F)cc(C(F)(F)F)c2)C1 (racemic)	
520	2400	O=C(O)COC1CCN(c2cccc(C(F)(F)F)c2)C1 (racemic)	
230	1600	O=C(O)COC1CCN(c2ccc(F)c(C(F)(F)F)c2)C1 (racemic)	
48	270	FC(F)(F)c1cc(N2CCC(OCc3nnn[nH]3)C2)cc(C(F)(F)F)c1 (racemic)	
28	110	O=C(O)CO[C@H]1CCN(c2cc(C(F)(F)F)cc(C(F)(F)F)c2)C1	Activity [3]: 64.6%; Activity [4]: 56.6%; Activity [5]: 75%; Activity [6]: 51.6%; Activity [7]: 42.4%; Activity [8]: 53%; Activity [9]: 50.4%; Activity [10]: 41.5%; Activity [11]: 43.6%; Activity [12]: 39.5%; Activity [13]: 39.6%; Activity [14]: 37.5%; Activity [15]: Dde; Cmax [16]: 2910 ng/mL; AUC [17]: 22000 ng·h/mL; bioavailability [18]: 58%
150	200	COC(=O)CO[C@H]1CCN(c2cc(C(F)(F)F)cc(C(F)(F)F)c2)C1	
42	300	O=C(O)CC1CCN(c2cc(C(F)(F)F)cc(C(F)(F)F)c2)C1 (racemic)	
51	220	O=C(O)CCC1CCN(c2cc(C(F)(F)F)cc(C(F)(F)F)c2)C1 (racemic)	
16	100	O=C(O)COC1CCN(c2cc(C(F)(F)F)cc(C(F)(F)F)c2)C1 (racemic)	
21	130	O=C(O)CO[C@@H]1CCN(c2cc(C(F)(F)F)cc(C(F)(F)F)c2)C1	Activity [12]: 42.2%; Activity [13]: 40.5%; Activity [14]: 38.6%; Cmax [16]: 2920 ng/mL; AUC [17]: 17900 ng·h/mL; bioavailability [18]: 51%
96	420	O=C(O)COC1CCN(c2cc(Cl)cc(C(F)(F)F)c2)C1 (racemic)	
24	420	O=C(O)CCc1nc(-c2cc(C(F)(F)F)cc(C(F)(F)F)c2)co1	
40	740	O=C(O)CCC1CN(c2cc(C(F)(F)F)cc(C(F)(F)F)c2)C1	
130	1200	O=C(O)CCc1ncc(-c2cc(C(F)(F)F)cc(C(F)(F)F)c2)o1	
240	1500	O=C(O)COC1CCN(c2cccc(C(F)(F)F)c2F)C1 (racemic)	
190	1200	O=C(O)COC1CCN(c2cc(F)cc(C(F)(F)F)c2)C1 (racemic)	
82	870	COc1cc(N2CCC(OCC(=O)O)C2)cc(C(F)(F)F)c1 (racemic)	

Source: ChEMBL document CHEMBL5143554, “Discovery of phenylpyrrolidine derivatives as a novel class of retinol binding protein 4 (RBP4) reducers” (Bioorg Med Chem, 2022)
